pIC50: −log10 of the molar value. Where a name gives a salt, the structure may show the parent alone.
The compounds below were run against T1, human Mnk2a (Homo sapiens, UniProt Q9HBH9) (assay: Mnk2a in vitro kinase assay (indirect fluorescence polarization)). Conditions: GST-Mnk2a pre-activated with ERK2, 20 μM ATP, 30 μM substrate peptide; read-out: MNK2 IC50.
T1 construct: made in house; host or cells: E. coli BL21 (vector pGEX-4T1)
Type: biochemical
Protocol: Inhibitory potency of compounds against Mnk1, Mnk2a and other kinases was assessed with assays based on a format known to those skilled in the art as the indirect (competitive) fluorescence polarization. The assay detection system comprises a small fluorophore-labeled phospho-peptide (termed ligand) bound to a phospho-specific antibody. The product generated by the kinase reaction competes with the ligand for antibody binding. Based on the larger molecular volume of the bound ligand, which results in a lower rotation rate in solution, its emitted light has a higher degree of polarization than the one from the free ligand.
As a source of enzyme, human Mnk1 and human Mnk2a were expressed as GST fusion proteins in E. coli, purified to >80% homogeneity by glutathione affinity chromatography and activated in vitro with pre-activated ERK2. In brief, the open reading frames of human Mnk1 and Mnk2a were amplified from cDNA using the forward/reverse primer pairs
(utilized restriction sites underlined), respectively, and cloned into the BamHI and SalI sites of the vector pGEX-4T1 (Amersham, Sweden, cat. no. 27-4580-01). These constructs allow prokaryotic expression of Mnk1 or Mnk2a as fusion protein with a N-terminal glutathione S-transferase (GST) tag, referred to as GST-Mnk1 or GST-Mnk2a. The following expression and purification procedure was identical for GST-Mnk1 and GST-Mnk2a, referring in general to GST-Mnk, when not distinguishing between the two isoforms. Expression of GST-Mnk was in E. coli BL21 (Merck Biosciences, Germany, cat. no. 69449). Cells were grown in LB-Bouillon (Merck, Germany, cat. no. 1.10285) supplemented with 100 μg/ml ampicillin (Sigma, Germany, cat. no. A9518) at 37° C. When the culture had reached a density corresponding to an A600 of 0.8, an equal volume of ice cold LB/ampicillin was added, the culture transferred to 25° C. and induced for 4 h with 1 mM isopropyl thiogalactoside (IPTG, Roth, Germany, cat. no. 2316.4). Cells harvested by centrifugation were resuspended in 10 ml lysis buffer (50 mM tris(hydroxymethyl)aminomethane hydrochloride (Tris/HCl, Sigma, Germany, cat. no. T5941) pH 7.5, 300 mM sodium chloride (NaCl, Sigma, Germany, cat. no. S7653), 5% (w/v) glycerol (Sigma, Germany, cat. no. G5516), 3 mM DTT dithiotreitol (DTT, Sigma, Germany, cat. no. D9779)) per gram wet weight cell pellet. Lysates were prepared by disruption of cells with a sonifier and subsequent clearing by centrifugation at 38000 g for 45 min at 4° C.
The lysate was applied to a GSTPrep FF 16/10 column (Amersham, Sweden, cat. no. 17-5234-01) equilibrated with lysis buffer. Removal of unbound material was with 3 column volumes (CV) lysis buffer. Elution was with 2 CV of elution buffer (50 mM Tris/HCl pH 7.5, 300 mM NaCl, 5% (w/v) glycerol, 20 mM glutathione (Sigma, Germany, cat. no. G4251)). Peak fractions were pooled and the protein transferred into storage buffer (50 mM Tris/HCl pH 7.5, 200 mM NaCl, 0.1 mM ethylene glycol-bis(2-aminoethylether)-N,N,N′,N′-tetraacetic acid (EGTA, Aldrich, Germany, cat. no. 23, 453-2), 1 mM DTT, 10% (w/v) glycerol, 0.5 M sucrose (Sigma, Germany, cat. no. SO389) by gel filtration on a PD10 desalting column (Amersham, Sweden, cat. no. 17-0851-01). Aliquots were shock frozen in liquid nitrogen and stored at −80° C.
Activation of Mnk1 and Mnk2a was at a concentration of 2.5 μM of either purified GST-Mnk1 or GST-Mnk2a by incubation with 150 nM pre-activated NHis-ERK2 (see ERK2 assay for preparation) and 50 μM adenosine triphosphate (ATP, Sigma, cat. no. A2699) in a buffer comprising 20 mM N-(2-hydroxyethyl)piperazine-N′-(2-ethanesulfonic acid) (HEPES, Fluka, Germany, cat. no 54459)/potassium hydroxide (KOH, Roth, Germany, cat. no 6751.1) pH 7.4, 10 mM magnesium chloride (MgCl2, Sigma, Germany, cat. no. M2670), 0.25 mM DTT, 0.05% (w/v) polyoxyethylene 20 stearylether (Brij 78, Sigma, Germany, cat. no. P4019) (HMDB buffer) for 45 min at 30° C. […]

T1 sequence (Q9HBH9 whole entry): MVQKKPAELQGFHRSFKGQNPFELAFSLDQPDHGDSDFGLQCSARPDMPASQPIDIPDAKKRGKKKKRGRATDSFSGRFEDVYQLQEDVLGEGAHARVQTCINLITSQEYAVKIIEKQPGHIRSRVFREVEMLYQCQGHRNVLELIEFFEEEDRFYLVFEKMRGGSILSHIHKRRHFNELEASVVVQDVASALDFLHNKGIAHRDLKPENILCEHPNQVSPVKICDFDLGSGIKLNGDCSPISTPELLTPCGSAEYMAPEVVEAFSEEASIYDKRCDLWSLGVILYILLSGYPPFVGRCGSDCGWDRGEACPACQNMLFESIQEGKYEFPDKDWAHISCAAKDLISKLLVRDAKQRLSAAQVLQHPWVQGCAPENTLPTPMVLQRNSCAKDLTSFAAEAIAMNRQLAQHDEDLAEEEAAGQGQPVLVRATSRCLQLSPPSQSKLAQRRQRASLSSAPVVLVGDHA

SMILES	pIC50
Cc1c(C(=O)NC2CCCNCC2)sc2ncnc(Nc3ccc(F)cc3OC3CCOC3)c12 (stereo in doubt) [Compound 277, 4-{4-Fluoro-2-[(R)-(tetrahydro-furan-3-yl)oxy]-phenylamino}-5-methyl-thieno[2,3-d]pyrimidine-6-carboxylic acid azepan-4-ylamide trifluoroacetate]	7.23
Cc1c(C(=O)N[C@H]2CCC[C@@H]2O)sc2ncnc(Nc3cccnc3OC3CCOCC3)c12 [Compound 278, 5-Methyl-4-[2-(tetrahydro-pyran-4-yloxy)-pyridin-3-ylamino]-thieno[2,3-d]pyrimidine-6-carboxylic acid ((1S,2S)-2-hydroxy-cyclopentyl)-amide]	7.10
Cc1c(C(=O)NCCC[S+](C)[O-])sc2ncnc(Nc3cccnc3OC3CCOCC3)c12 (stereo not shown) [Compound 282, 5-Methyl-4-[2-(tetrahydro-pyran-4-yloxy)-pyridin-3-ylamino]-thieno[2,3-d]pyrimidine-6-carboxylic acid (3-methanesulfinyl-propyl)-amide]	7.28
COCCN1CCC[C@H](Oc2cc(F)ccc2Nc2ncnc3sc(C(N)=O)c(C)c23)C1 [Example 1, 4-{4-Fluoro-2-[(S)-1-(2-methoxy-ethyl)-piperidin-3-yloxy]-phenylamino}-5-methyl-thieno[2,3-d]pyrimidine-6-carboxylic acid amide]	6.31
Cc1c(C(N)=O)sc2ncnc(Nc3ccc(F)cc3O[C@H]3CCCN(CC(=O)N(C)C)C3)c12 [Example 2]	6.33
Cc1c(C(N)=O)sc2ncnc(Nc3ccc(F)cc3O[C@H]3CCCN(CCC#N)C3)c12 [Example 3]	6.92
Cc1c(C(N)=O)sc2ncnc(Nc3ccc(F)cc3O[C@H]3CCCN(Cc4ncon4)C3)c12 [Example 4]	6.96
Cc1c(C(N)=O)sc2ncnc(Nc3ccc(F)cc3O[C@H]3CCCN(CC(F)(F)F)C3)c12 [Example 5]	6.96
Cc1c(C(N)=O)sc2ncnc(Nc3ccc(F)cc3O[C@H]3CCCN(CCO)C3)c12 [Example 6, (S)-4-(4-fluoro-2-(1-(2-hydroxyethyl)piperidin-3-yloxy)phenylamino)-5-methylthieno[2,3-d]pyrimidine-6-carboxamide]	6.92
Cc1c(C(N)=O)sc2ncnc(Nc3ccc(F)cc3O[C@H]3CCCN(CC(C)C)C3)c12 [Example 7]	5.36
Cc1c(C(N)=O)sc2ncnc(Nc3ccc(F)cc3O[C@H]3CCCN(C)C3)c12 [Example 8]	7.10
Cc1c(C(N)=O)sc2ncnc(Nc3ccc(F)cc3O[C@H]3CCCN(CCC(F)(F)F)C3)c12 [Example 9]	6.74
Cc1c(C(N)=O)sc2ncnc(Nc3ccc(F)cc3O[C@H]3CCCN(S(C)(=O)=O)C3)c12 [Example 10, (S)-4-(4-fluoro-2-(1-(methylsulfonyl)piperidin-3-yloxy)phenylamino)-5-methylthieno[2,3-d]pyrimidine-6-carboxamide]	8.00
CNC(=O)c1sc2ncnc(Nc3ccc(F)cc3O[C@H]3CCCNC3)c2c1C [Example 11, 4-[4-Fluoro-2-((S)-piperidin-3-yloxy)-phenylamino]-5-methyl-thieno[2,3-d]pyrimidine-6-carboxylic acid methylamide]	7.41
Cc1c(C(=O)NC(C)C)sc2ncnc(Nc3ccc(F)cc3O[C@H]3CCCNC3)c12 [Example 12]	7.21
COCCNC(=O)c1sc2ncnc(Nc3ccc(F)cc3O[C@H]3CCCNC3)c2c1C [Example 13]	7.23
Cc1c(C(=O)NCc2nccn2C)sc2ncnc(Nc3ccc(F)cc3O[C@H]3CCCNC3)c12 [Example 14]	7.40
Cc1c(C(=O)NCCO)sc2ncnc(Nc3ccc(F)cc3O[C@H]3CCCNC3)c12 [Example 15]	7.51
Cc1c(C(=O)NCCCO)sc2ncnc(Nc3ccc(F)cc3O[C@H]3CCCNC3)c12 [Example 16]	7.52
Cc1c(C(=O)NC2CC2)sc2ncnc(Nc3ccc(F)cc3O[C@H]3CCCNC3)c12 [Example 17]	7.52
Cc1c(C(=O)NCCF)sc2ncnc(Nc3ccc(F)cc3OC3CCCNC3)c12 (stereo not shown) [Example 18]	7.24
Cc1c(C(=O)NCC2CC2)sc2ncnc(Nc3ccc(F)cc3OC3CCCNC3)c12 (stereo not shown) [Example 19]	7.33
CCC(C)CNC(=O)c1sc2ncnc(Nc3ccc(F)cc3OC3CCCNC3)c2c1C (stereo not shown) [Example 20]	7.17

SMILES	pIC50
Cc1c(C(=O)NCC(C)(C)C)sc2ncnc(Nc3ccc(F)cc3OC3CCCNC3)c12 (stereo not shown) [Example 21]	7.12
Cc1c(C(=O)NCc2ccco2)sc2ncnc(Nc3ccc(F)cc3OC3CCCNC3)c12 (stereo not shown) [Example 22]	7.59
Cc1c(C(=O)NCc2ncco2)sc2ncnc(Nc3ccc(F)cc3OC3CCCNC3)c12 (stereo not shown) [Example 23]	7.32
Cc1c(C(=O)NCC2CCOC2)sc2ncnc(Nc3ccc(F)cc3OC3CCCNC3)c12 (stereo not shown) [Example 24]	7.21
Cc1c(C(=O)NCC2CCCO2)sc2ncnc(Nc3ccc(F)cc3OC3CCCNC3)c12 (stereo not shown) [Example 25]	7.09
CCC(CC)CNC(=O)c1sc2ncnc(Nc3ccc(F)cc3OC3CCCNC3)c2c1C (stereo not shown) [Example 26]	7.22
Cc1c(C(=O)NCc2ccccc2)sc2ncnc(Nc3ccc(F)cc3OC3CCCNC3)c12 (stereo not shown) [Example 27]	7.32
Cc1c(C(=O)NCCc2cn[nH]c2)sc2ncnc(Nc3ccc(F)cc3OC3CCCNC3)c12 (stereo not shown) [Example 28]	7.19
Cc1c(C(=O)NCC2CCCCC2)sc2ncnc(Nc3ccc(F)cc3OC3CCCNC3)c12 (stereo not shown) [Example 29]	7.28
Cc1c(C(=O)NCc2cccs2)sc2ncnc(Nc3ccc(F)cc3OC3CCCNC3)c12 (stereo not shown) [Example 30]	7.47
Cc1c(C(=O)NCc2nccs2)sc2ncnc(Nc3ccc(F)cc3OC3CCCNC3)c12 (stereo not shown) [Example 31]	7.37
Cc1c(C(=O)NCC2CCOCC2)sc2ncnc(Nc3ccc(F)cc3OC3CCCNC3)c12 (stereo not shown) [Example 32]	7.26
Cc1cccc(CNC(=O)c2sc3ncnc(Nc4ccc(F)cc4OC4CCCNC4)c3c2C)c1 (stereo not shown) [Example 33]	7.25
Cc1c(C(=O)NCc2ccc(O)cc2)sc2ncnc(Nc3ccc(F)cc3OC3CCCNC3)c12 (stereo not shown) [Example 34]	7.46
Cc1c(C(=O)NCc2cccc(F)c2)sc2ncnc(Nc3ccc(F)cc3OC3CCCNC3)c12 (stereo not shown) [Example 35]	7.28
Cc1c(C(=O)N(C)CC2CCCCC2)sc2ncnc(Nc3ccc(F)cc3OC3CCCNC3)c12 (stereo not shown) [Example 36]	6.10
Cc1c(C(=O)NCCc2cccs2)sc2ncnc(Nc3ccc(F)cc3OC3CCCNC3)c12 (stereo not shown) [Example 37]	7.17
Cc1c(C(=O)NCCOC(F)(F)F)sc2ncnc(Nc3ccc(F)cc3OC3CCCNC3)c12 (stereo not shown) [Example 38]	7.00
Cc1c(C(=O)NCCCC2CCOC2)sc2ncnc(Nc3ccc(F)cc3OC3CCCNC3)c12 (stereo not shown) [Example 39]	7.24
Cc1c(C(=O)NCC2CCCCC2O)sc2ncnc(Nc3ccc(F)cc3OC3CCCNC3)c12 (stereo not shown) [Example 40]	7.46
Cc1c(C(=O)NCc2ccccc2C#N)sc2ncnc(Nc3ccc(F)cc3OC3CCCNC3)c12 (stereo not shown) [Example 41]	7.51
Cc1c(C(=O)NCC(=O)c2ccccc2)sc2ncnc(Nc3ccc(F)cc3OC3CCCNC3)c12 (stereo not shown) [Example 42]	7.39
Cc1c(C(=O)NCCNc2ccccc2)sc2ncnc(Nc3ccc(F)cc3OC3CCCNC3)c12 (stereo not shown) [Example 43]	7.25
